The values that follow come from patent US11318090B1, “In situ gelling composition as a pH-selective and mucoadhesive sustained release drug delivery system” (King Abdulaziz University, priority 2021, dated 2022).

The data set in a line: pH-profile drug release in dialysis bag, consecutive simulated gastrointestinal media. The class given is physicochemical. Here is the method:
Rv (Sigma-Aldrich, USA) stock solution of 15 μg/mL was prepared in distilled water. Using UV spectrophotometric analysis (Shimadzu-UV-Vis Spectrophotometers, Japan), the analysis was conducted at a wavelength of 306 nm in a 1 cm cell compared to a blank solution of distilled water. To construct a calibration curve, dilutions had been prepared (FIG. 1). The ? -max selection was based on the UV-scanning from 200-400 nm of pure Rv solution. The formulations' drug-content assays for drug encapsulation efficiency were accomplished by dissolving the formulation in ethanol and centrifuging it for 30 minutes at 1500 rpm. After that, an accurate volume of the supernatant transparent layer had been measured for UV-absorbance at 306 nm for Rv content. This ? -max was unique for Rv only (Zhang Lingtuo et al. 2019).
The formulations in Table 1 containing 500 mg of the Rv were each encountered in the dialysis bag (14000 Daltons cut off, Sigma-Aldrich, USA). The dry weights of the formulations were reconstituted with distilled water before enclosing them inside the dialysis bag. The release media volume was 300 mL. The drug-release experiment was designed to simulate the gastrointestinal-pH and transit time after oral ingestion. As a result, the dialysis membranes' surrounding media simulated gastric media (0.1N HCl-pH 1.2), proximal intestine simulated media (phosphate buffer-pH 6.5), the distal area of the small intestine (phosphate buffer-pH 6.8), and phosphate buffer media-pH 7.4 of descending colon simulated media, consecutively. The transit time for each simulated media was two hrs (Amidon et al. 2015; Maurer et al. 2015; Bani-Jaber and Abdullah 2020). The dialysis membranes were subjected to 37±0.5° C. in a water bath shaker of 75 rpm speed. Total release media replacement was made after each hour of dissolution to simulate body sink conditions. This experiment was conducted to optimize the formulation depending on SR behavior and drug encapsulation efficiency. The optimum formula was subjected to aging, gel swelling studies, nanoparticle, and formulation's physiochemical characterizations.

In the case of 3,5,4-trihydroxytrans-stilbene [Rv], the “Gastric % Release” value (0.1N HCl pH 1.2, 2 hrs, 37°C, 500 mg Rv, freshly prepared) is recorded as 16.83%. Under “pH 1.2, 6.5, 6.8, 7.4, 2 hrs each”, the “average total pH-profile release after 8 hrs” value is listed as 50.89%. The “Intestinal-Colonic % Release” value (pH 6.5, 6.8 and 7.4 media together (6 hrs), freshly prepared) is 34.06%. Further, the “Proximal Intestine % Release” value (phosphate buffer pH 6.5, 2 hrs, freshly prepared) was 11.49%. Moreover, the “Distal Intestine % Release” value (phosphate buffer pH 6.8, 2 hrs, freshly prepared) is reported as 12.74%. In addition, where the note is “phosphate buffer pH 7.4, 2 hrs, freshly prepared”, the “Colon % Release” value is reported as 9.83%.
